Results taken from patent US12076329B2, “Compositions and methods for enhancing visual function” (The Regents of the University of California, priority 2020, dated 2024).
“Also recorded” adds a separate entry of the source.

What was measured:
SNAP-mGluR2 = molecular target: T1, SNAP-mGluR2 (Rattus norvegicus, UniProt P31421); experiment: Photoactivation of SNAP-mGluR2 read out as GIRK current, whole cell patch clamp in HEK293 cells; format: cell-based
T1 construct: expressed in transfected cells; host or cells: HEK293 / HEK 293T, with co-expressed GIRK channel
Procedure: Whole cell patch clamp recordings from HEK 293T cells were performed 24-48 hours after transfection as previously described (Farrants et al., 2018). Briefly, voltage clamp recordings at −60 mV were performed in a high potassium (120 mM) solution to enable large inward currents upon receptor activation.
Unless otherwise noted, cells were incubated with 1-10 μM of PORTL for 45-60 min at 37° C. in the appropriate extracellular recording solution. Labeling efficiency was determined as previously described (Levitz et al., 2017). Illumination was applied to the entire field of view using a CoolLED pE-4000 through a 40× objective. Light intensity in the sample plane was 1-2 mW/mm^2. pClamp software was used for both data acquisition and control of illumination. All drugs were purchased from Tocris and applied using a gravity-driven perfusion system.
FIG. 3A-3C. Monovalent BGAG12,460 elicits rat SNAP-mGluR2 and human SNAP-mGluR6 GIRK photo-current in HEK293 cells. FIG. 3A. Group II and III mGluRs, like mGluR2 and 6, respectively, couple to GIRK channels in neurons and this system reconstitutes in non-neuronal cell lines, so that SNAP-mGluR2 or 6 coupled to a BGAG photoswitch will be activated by light and induce hyperpolarizing GIRK current. FIG. 3B. Blue (460 nm) light photo-activates BGAG12,460:SNAP-mGluR2 and elicits an inward K+ current from co-expressed GIRK channel in a HEK293 cell voltage clamped at −60 mV with [K+]in=[K+]out=150 mM. FIG. 3C.
FIG. 4A-4D. Multibranched BGAG12,460 increases potency and sensitivity of SNAP-mGluR2 activation of GIRK channels in HEK293 cells. FIG. 4A. ^4×BGAG12,460 consists of a single BG end for 1:1 attachment to SNAP on each subunit of the mGluR and 4 branches of a 12-PEG linker, with each branch bearing a photoswitchable azobenzene-glutamate (AG). FIG. 4B. […] Dependence of SNAP-mGluR2 photo-activation efficiency, read out as GIRK current, with single, 2-branch and 4-branch BGAG12,460. […]

[1] = tested on: rd1 mice expressing SNAP-mGluR2 in ON-BCs; experiment: Line pattern recognition (learned aversive association, iPad displays), SNAP-mGluR2 in ON-BCs; format: in vivo, mouse; conditions: in PBS, trained and tested within a week after intravitreal injection
Procedure: Modified active avoidance was assayed as previously described^19, using the Coulbourn shuttle box (H10-11M-SC), however, now iPad tablet screens were mounted onto the shuttle cage wall, each displaying one of two images that differed in orientation or distance between two lines but were otherwise of equal shape, size, and light intensity. The aversive image side was paired with a foot shock of 0.7 mA. Upon recall the light patterns were reversed to avoid a bias for location and time spent on each side was recorded. Adaptation was tested by dimming or brightening the display to different intensities.
As shown above, ^4×BGAG12,460:SNAP-mGluR2 in either RGCs or ON-BCs confers high sensitivity light perception. It was asked whether ^4×BGAG12,460:SNAP-mGluR2 would support patterned vision. The ability of treated and untreated rd1 mice to discriminate between two different line patterns in a learned negative association task was tested. The task is carried out in a 2-chamber arena, where the floor in each chamber is conductive and can apply an independent aversive mild foot shock. […] The mouse was trained for two days, during which a mild foot shock was given in one of the chambers. The line pattern associated with the foot shock was assigned randomly initially but then kept consistent for that animal throughout the 2 days of training. […]

T1 sequence (P31421 with tags, fused parts or gaps): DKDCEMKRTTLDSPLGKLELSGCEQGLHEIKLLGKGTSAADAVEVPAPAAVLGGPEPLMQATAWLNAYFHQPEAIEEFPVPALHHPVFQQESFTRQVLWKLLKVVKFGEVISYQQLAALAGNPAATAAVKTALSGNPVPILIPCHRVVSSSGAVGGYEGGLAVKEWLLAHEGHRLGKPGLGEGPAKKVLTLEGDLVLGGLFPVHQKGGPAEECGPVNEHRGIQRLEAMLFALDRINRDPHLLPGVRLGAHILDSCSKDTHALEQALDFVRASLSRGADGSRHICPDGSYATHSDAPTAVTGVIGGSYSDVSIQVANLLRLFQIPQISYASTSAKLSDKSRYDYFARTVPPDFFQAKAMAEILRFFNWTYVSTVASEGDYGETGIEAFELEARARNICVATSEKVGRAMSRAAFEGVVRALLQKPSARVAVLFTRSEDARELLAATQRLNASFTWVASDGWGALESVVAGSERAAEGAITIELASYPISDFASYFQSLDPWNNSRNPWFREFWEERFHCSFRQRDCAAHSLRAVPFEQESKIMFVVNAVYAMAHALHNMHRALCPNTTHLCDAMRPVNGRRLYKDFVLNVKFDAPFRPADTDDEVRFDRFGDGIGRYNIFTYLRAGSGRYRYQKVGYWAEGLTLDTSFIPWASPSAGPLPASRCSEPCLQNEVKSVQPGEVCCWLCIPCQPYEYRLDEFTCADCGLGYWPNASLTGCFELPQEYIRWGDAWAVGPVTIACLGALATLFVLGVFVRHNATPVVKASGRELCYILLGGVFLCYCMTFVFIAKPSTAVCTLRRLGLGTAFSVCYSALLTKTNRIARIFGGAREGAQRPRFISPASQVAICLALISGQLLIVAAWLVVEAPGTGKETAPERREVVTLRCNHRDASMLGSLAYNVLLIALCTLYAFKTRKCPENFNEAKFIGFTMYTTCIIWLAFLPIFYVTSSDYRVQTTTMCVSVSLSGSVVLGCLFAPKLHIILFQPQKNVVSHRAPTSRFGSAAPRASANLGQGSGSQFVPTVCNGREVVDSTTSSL

Nc1nc(OCc2ccc(CNC(=O)CCCC(=O)N[C@H](CCC(=O)N[C@H](CCC(=O)NCCOCCOCCOCCOCCOCCOCCOCCOCCOCCOCCOCCOCCC(=O)NCCNc3ccc(/N=N/c4ccc(NC(=O)CCC[C@@H](C[C@H](N)C(=O)O)C(=O)O)cc4)cc3)C(=O)NCCOCCOCCOCCOCCOCCOCCOCCOCCOCCOCCOCCOCCC(=O)NCCNc3ccc(/N=N/c4ccc(NC(=O)CCC[C@@H](C[C@H](N)C(=O)O)C(=O)O)cc4)cc3)C(=O)N[C@H](CCC(=O)NCCOCCOCCOCCOCCOCCOCCOCCOCCOCCOCCOCCOCCC(=O)NCCNc3ccc(/N=N/c4ccc(NC(=O)CCC[C@@H](C[C@H](N)C(=O)O)C(=O)O)cc4)cc3)C(=O)NCCOCCOCCOCCOCCOCCOCCOCCOCCOCCOCCOCCOCCC(=O)NCCNc3ccc(/N=N/c4ccc(NC(=O)CCC[C@@H](C[C@H](N)C(=O)O)C(=O)O)cc4)cc3)cc2)c2nc[nH]c2n1 [^4×BGAG12,460] was tested. Which “visible light photoactivation of SNAP-mGluR2” value (SNAP-mGluR2; 460 nm light, GIRK current, HEK293 cells) did it give?
The value was “near-complete photoactivation of mGluR2; also recorded: close to the maximum activation that is achieved with saturating glutamate”.

And the “increase in sensitivity (shift of mid-point of the intensity-response curve)” value (SNAP-mGluR2; cultured HEK293 cells, versus BGAG12,460)?
Its value is roughly 5 fold.

What about the “line pattern recognition, parallel lines spaced 1 versus 6 cm” value [1] of the same compound?
Its value is “spent also more time on the side of the non-aversive visual display”.
